# In US10328075B2, “Method of treatment and compounds for use therein” (Baker Heart and Diabetes Institute, priority 2015, dated 2019):
# No end group written: not given here.
# Tests used:
# [1] = test system: mFpr1, mFpr2 expression in AMCF; test: Fpr gene expression in adult mouse cardiac fibroblasts (real-time PCR); type: cell-based; details: 10 μM, 24 h incubation, TGF-β
# Procedure: AMCFs were starved overnight in serum-free DMEM prior to incubation with the pro-fibrotic stimulus transforming growth factor TGF-β (10 ng/ml) for 24 h at 37° C. FPR agonists Cmpd17b, Cmpd43 (both 10 μM) or vehicle were present 30 min prior to TGF-β. At the end of 24 h stimulation, RNA was extracted and real-time PCR performed to determine the relative gene expression of CTGF and IL-1β, relative to housekeeping gene 18S, as described previously (5). Relative gene expression of mouse Fprs (mFpr1 and mFpr2, expressed as the threshold cycle number Ct subtracted from the maximum cycle number utilized, 40) was also determined at the end of 24 h stimulation.
# [2] = test system: myocardial I-R injury in C57BL/6 mice; test: Myocardial I-R in mice: cardiac fibrosis, apoptosis and remodelling after 7 days reperfusion; type: in vivo, mouse; details: for Effect on cardiac remodeling 7 days post I-R: 50 mg/kg i.p.
# Procedure: Male C57BL/6 mice were breed and housed in the AMREP Animal Centre and maintained under a 12 h light/dark cycle. After anaesthesia (i.p., ketamine 80 mg/kg, xylazine 20 mg/kg and atropine 1.2 mg/kg), mice were randomly assigned to 24 h, 48 h and 7 days reperfusion groups and underwent reversible left arterial descending (LAD) ligation as described (Gao XM, 2011; JMCC, 50; Gao XM, 2000, JMCC). Following sedation, mice were intubated and ventilated (Harvard apparatus, MA, USA) with room air mixed with oxygen (tidal volume 0.25 mL, 150 breath/min), and placed on a heating pad. A left thoractomy will be made via the ˜third intercostal space, where the beating heart was located.
# The LAD was reversibly ligated using 7-0 silk suture with a slipknot enclosing two releasing rings. Regional ischaemia was confirmed by pale colour of the ligated area. Air was then evacuated from the chest, the cavity was closed and normal respiration was restored. After 40-60 min of ischaemia, blood flow through the left coronary artery was re-established by releasing the slipknot. Sham-operated mice underwent identical surgical procedures except the coronary arteries were not ligated. Three cohorts of mice were scheduled. Cohort 1 was subjected to 40 min ischaemic-24 h reperfusion for the assessment of cardiac necrosis. Cohort 2 was subjected to 60 min occlusion with 48 h reperfusion for the quantification of cardiac and systemic inflammation. The last cohort was subjected to 7 d reperfusion and early cardiac fibrosis was assessed.
# Treatment with study drugs: Animals were randomly assigned to different groups and all treatments were administrated 5 min prior to reperfusion of the LAD. The peptide Ac2-26 (1 mg kg^−1) (Chemieliva, Chongqing, China) and its vehicle (10% dimethyl sulfoxide (DMSO) in saline) were intravenously (i.v.) injected via the tail vein. […] Mice then received drug or vehicle injections daily until the experimental endpoint. The two different vehicles groups reflect different study drug solubility and administration routes.
# Assessment of cardiac histology and fibrosis: LV hearts fixed in NBF after 40 min ischaema and 7 d reperfusion were embedded in paraffin by the Alfred Pathology Service (Melbourne, Australia) and sectioned at 4 μm with a Leica 2135 microtome (Leica Microsystems, Wetzlar, Germany). Sections were stained with haematoxylin and eosin (H&E) for assessment of myocardial morphology, or picrosirius red (0.1%, Fluka, Bucks, Switzerland; pH2) for cardiac collagen deposition. Images were taken at 1.25× to capture the whole LV. To examine the local infarct area, images were collected at 20× using the microscope (Olympus BX61, Olympus Inc., Ontario, Canada) and QCapture Pro software (version 5.1 for Windows, Media Cybernetic Inc., Maryland, USA). H&E images were scored blindly in random order on a scale of 1 to 5, based on intensity of blue staining of nuclei (1=least, 5=most, classified by independent observer). The area of picrosirius red staining (% LV area) was quantitatively measured using Image-Pro Plus software (Media Cybernetic Inc., Maryland, USA) for sets of LV slides from 48 h reperfusion and 7 d reperfusion study.
# Animal Surgery: Adult C57BL/6 mice were randomly assigned to myocardial ischemia-reperfusion (I-R) injury or sham in vivo. Anesthetized mice (ketamine 80 mg/kg, xylazine 20 mg/kg and atropine 1.2 mg/kg, KXA, i.p.) underwent reversible left arterial descending (LAD) ligation as described (Gao et al. 2000 & Gao et al. 2011). Following sedation, mice were intubated and ventilated (Harvard apparatus, MA, USA) with room air mixed with oxygen (tidal volume 0.25 mL, 150 breaths/min), and placed on a heating pad. A left thoractomy was be made around the third intercostal space, where the beating heart was located. The LAD was reversibly ligated using 7-0 silk suture with a slipknot enclosing two releasing rings. Regional ischemia was confirmed by pale color of the ligated area. […]
# hFPR1 = target: T1, hFPR1 (Homo sapiens, UniProt P21462); test: Quantification of biased agonism (operational model) at hFPR1 in CHO cells; type: cell-based; details: for Bias (away from Ca2+i), hFPR1-FlpInCHO cells in vitro: Table 9
# T1 construct: expressed in transfected cells
# T1 sequence (P21462 1-350): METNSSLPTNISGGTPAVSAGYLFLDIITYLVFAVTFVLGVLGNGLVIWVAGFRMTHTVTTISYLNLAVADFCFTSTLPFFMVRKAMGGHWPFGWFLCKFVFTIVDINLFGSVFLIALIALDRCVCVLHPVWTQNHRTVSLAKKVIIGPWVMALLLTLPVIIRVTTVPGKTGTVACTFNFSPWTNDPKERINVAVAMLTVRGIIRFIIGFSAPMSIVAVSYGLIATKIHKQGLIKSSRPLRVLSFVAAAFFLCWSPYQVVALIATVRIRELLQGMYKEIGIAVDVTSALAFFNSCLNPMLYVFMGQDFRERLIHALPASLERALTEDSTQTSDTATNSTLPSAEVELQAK
# From the text: To quantify biased agonism mediated by each agonist across the various pathways ([Ca^2+], mobilization, pERK1/2, Akt1/2/3 and inhibition of cAMP accumulation), agonist concentration-response curves were refitted using the operation model normalized to the transduction ratio of a reference agonist (in this case, BIDI-002) as described previously (Stewart G D et al., 2009). Under these conditions, if the test agonist and the reference agonist activate the two pathways through a common receptor conformation, the log [bias factor] should be 0.0 (or bias factor different from 1.0), irrespective of differences in response amplification between pathways. In contrast, significant deviation of log [bias factor] from 0.0 (or bias factor different from 1.0) indicates the involvement of distinct conformations for the different agonists. All affinities, potencies, efficacies, and cooperativity parameters were estimated as logarithms (Christopoulos, 1998). Results are expressed as means±S.E. unless otherwise stated. Statistical analyses were by Student's t test, or one-way ANOVA followed by Dunnett's Comparison or Tukey's post-hoc test, as appropriate. Values of p<0.05 were considered statistically significant.
# A “transduction ratio” is firstly derived for each response (τ/KA, where τ represents efficacy, and KA affinity, of the agonist for each GPCR conformational state), extracted from each concentration-response curve. “Bias factors” (ΔΔ(τ/KA)) were then calculated by normalizing the transduction ratio to a reference ligand (in this case, Cmpd43) and reference pathway, which here was Akt1/2/3(Thr308) phosphorylation. Lastly, bias factors were plotted on a ‘web of bias’ to visualize the potential for biased agonism. […] Under these conditions, if the test agonist and the reference agonist activate the two pathways through a common receptor conformation, the log [bias factor] should be 0.0 (i.e. the bias factor 1.0), irrespective of differences in response amplification between pathways. In contrast, significant deviation of log [bias factor] away from 0.0 (i.e. where the bias factor is different to 1.0) indicates the involvement of distinct conformations for the different agonists. All affinities, potencies, efficacies, and cooperativity parameters were estimated as logarithms (Kenakin et al. 2012).
# Five signaling pathways were examined, namely pERK1/2-phosphorylation, Akt1/2/3(Ser473)-phosphorylation, Akt1(Thr308)-phosphorylation, increases in Ca2+i and inhibition of forskolin-induced cAMP accumulation. An operational model of agonism was fitted to each concentration-response curve to estimate a transduction ratio (τ/KA) for each agonist, at each pathway assessed, as described (FIG. 21B) (Kenakin et al. 2012). Transduction ratios were normalized to a reference agonist (Cmpd43) and a reference pathway (Akt1/2/3(Thr308)-phosphorylation), generating bias factors and therefore allowing quantitative cross-pathway comparison for each agonist.
Compound,AMCF expression of mFpr1 [1],AMCF expression of mFpr2 [1],Effect on cardiac remodeling 7 days post I-R [2],Effect on I-R-induced cardiac fibrosis (picrosirius red) ([2]; 7 days reperfusion),Effect on LV apoptosis in the infarct area ([2]; 7 days reperfusion),Cardioprotection: Adverse remodelling ([2]; Table 9),"Bias (away from Ca2+i), hFPR1-FlpInCHO cells in vitro (hFPR1)","Preference to Akt phosphorylation, ERK phosphorylation and cAMP accumulation (degree of bias) (hFPR1; operational model, relative to BIDI-002, hFPR receptors)",Biased agonism / bias away from Ca2+i (hFPR1; in words)
"COc1cccc(Cc2cc(C)nn(C(C)C(=O)Nc3ccc(Br)cc3)c2=O)c1 (centres unmarked) [BIDI-001, N-(4-bromophenyl)-2-[5-(3-methoxybenzyl)-3-methyl-6-oxo-6H-pyridazin-1-yl]-propionamide]",did not significantly influence,did not significantly influence,reduces cardiac remodeling,absent,significantly attenuated,↓↓,–,–,–
CC(C)C1C(NC(=O)Nc2ccc(Cl)cc2)C(=O)N(c2ccccc2)N1C (centres unmarked) [BIDI-002],restored,–,lacked these cardioprotective actions,persist,–,–,No,approximately 20 fold,–
Cc1cc(Cc2cccnc2)c(=O)n(CC(=O)Nc2ccc(Cl)cc2)n1 [MIPS-0010396],–,–,–,–,–,–,Strong,–,displays Ca2+i bias
"Ac2-26: Annexin-A1 N-terminal peptide, peptide ANX-A1 mimetic (Ac-AMVSEFLKQAWFIENEEQEYVQTVK; UniProt P04083 2-26, looked up, fragment)",–,–,–,tended to be inhibited,–,–,–,–,–
